Like-named read-outs stand apart in the source and are kept apart here.

Assay [1] relates to Colo205 (doxorubicin-sensitive human colon adenocarcinoma cell line). Nature of the assay: MTT assay, cytotoxic effect on Colo205. The format is cell-based. Conditions: COLO 205, 24 h incubation. How it is done: (§1) The doxorubicin-sensitive Colo205 (ATCC-CCL-222) and the doxorubicin-resistant ABCB1- and LRP-expressing Colo320/MDR-LRP (ATCC-CCL-220.1) human colon adenocarcinoma cell lines were obtained from LGC Promochem in Teddington, UK. For culturing, the RPMI 1640 medium was applied and was supplemented with a 10% heat-inactivated foetal bovine serum (FBS), 2 mM L-glutamine, 1 mM Na-pyruvate and 10 mM HEPES along with nystatin and gentamicin.
(§2) The anticancer activity of the compounds was tested in 96-well flat-bottomed microtiter plates. In this assay, the two-fold serial dilutions of the compounds (concentration range: 100–0.19 μM) were made in a 100 μL RPMI 1640 medium. Next, 1 × 10^4 of human colonic adenocarcinoma cells (Colo205 or Colo320) in a 100 μL RPMI 1640 medium were added to each well except for the medium control wells. The starting concentration of the solvent DMSO in the plate was 2% v/v. The samples were incubated at 37 °C for 24 h. At the end of the incubation, 20 μL of an MTT (thiazolyl blue tetrazolium bromide) solution (from a 5 mg/mL stock solution) was pipetted to each well. After incubation at 37 °C for 4 h, 100 μL of a sodium dodecyl sulfate (SDS) solution (10% SDS in 0.01 M HCl) was pipetted to each well, and the plates were kept at 37 °C overnight. The growth of the cells was determined by measuring the optical density (OD) at 540 nm (refering to 630 nm) with a Multiscan EX ELISA reader (Thermo Labsystems, Cheshire, WA, USA). The inhibition of cell growth was calculated as IC50 values, defined as the inhibitory dose that reduces the growth of the cells exposed to the tested compounds by 50%. The IC50 values and the SD of the triplicate experiments were determined using GraphPad Prism software version 5.00 for Windows with a non-linear regression curve fit (GraphPad Software, San Diego, CA, USA; www.graphpad.com). Doxorubicin (from a 2 mg/mL stock solution, Teva Pharmaceuticals, Singapore) served as a positive control.
(§3) Since several sesquiterpene lactone-based aminoadducts exerted a significant cytotoxic action on different human cancer cell lines, the in vitro cytotoxic activities of the prepared grossheimin-based amino analogues were also tested on human colon adenocarcinoma lines, including Colo205 and Colo320 by MTT assay.

The test system of assay [2] is Colo320/MDR-LRP (doxorubicin-resistant ABCB1- and LRP-expressing human colon adenocarcinoma cell line). Nature of the assay: MTT assay, cytotoxic effect on Colo320. The format is cell-based. Conditions: COLO 320, 24 h incubation. How it is done: as §1, §2, §3
The test system of assay [3] is CDD-19Lu fibroblasts. Nature of the assay: Cytotoxic effect on fibroblasts. The format is cell-based. How it is done:
as §2
3. Cytotoxic effects of grossheimin-based aminoanalogues
Table S1. Cytotoxic effects of grossheimin-based aminoanalogues on colon adenocarcinoma cell lines and
CDD-19Lu fibroblasts. Doxorubicin (DOX) was applied as a positive control . n.d: not determined. Starting
concentration of grossheimin-based aminoanalogs and DOX in the assay with CDD-19Lu fibroblasts is 100 and […]

Assay [4] relates to colorectal cancer HCT-116 cell lines. Also on record: method as in doi:10.14188/j.ajsh.2023.03.009. Conditions: cited from earlier work.
For assay [5], the system named is MDA-MB-231. Also on record: method as in doi:10.14188/j.ajsh.2023.03.009. Conditions: cited from earlier work.
Assay [6] relates to human colon adenocarcinoma lines, including Colo205 and Colo320. Nature of the assay: MTT assay, colon adenocarcinoma lines. The format is cell-based. Conditions: text summary over Colo205 and Colo320, read-out: IC50 against colon adenocarcinoma cancers / malignant cell lines. How it is done: as §1
The anticancer activity of the compounds was tested in 96-well flat-bottomed microtiter plates. In this assay, the two-fold serial dilutions of the compounds (concentration range: 100–0.19 μM) were made in a 100 μL RPMI 1640 medium. Next, 1 × 10^4 of human colonic adenocarcinoma cells (Colo205 or Colo320) in a 100 μL RPMI 1640 medium were added to each well except for the medium control wells. The starting concentration of the solvent DMSO in the plate was 2% v/v. The samples were incubated at 37 °C for 24 h. […] The growth of the cells was determined by measuring the optical density (OD) at 540 nm (refering to 630 nm) with a Multiscan EX ELISA reader (Thermo Labsystems, Cheshire, WA, USA). […] The IC50 values and the SD of the triplicate experiments were determined using GraphPad Prism software version 5.00 for Windows with a non-linear regression curve fit (GraphPad Software, San Diego, CA, USA; www.graphpad.com). […]
A general note: Formazan colour is commonly taken as a measure of viable cells.

Where [7] appears, read: Homo sapiens, CCD 19Lu, fibroblasts, Table S1, starting concentration 100 (analogues) and 8.62 (DOX), read-out: IC50 CCD-19Lu.
The mark [8] stands for this setting: Fibroblast, fibroblasts, Table 2, read-out: IC50 CDD-19Lu.

`C=C1C[C@H](O)[C@@H]2[C@H](OC(=O)[C@H]2COC)[C@H]2[C@H](C)[C@@H](O)C[C@@H]12` [Compound 15]: the IC50 in assay [1] (Table S1) and in assay [2] (Table S1) was greater than 100 µM in each case.

As for `C=C1C[C@H](O)[C@@H]2[C@H](OC(=O)[C@H]2Cn2cnc3ccccc32)[C@H]2[C@H](C)C(=O)C[C@@H]12` [Compound 11f], the IC50 in assay [3] (setting [7]), in assay [1] (Table S1) and in assay [2] (Table S1) was greater than 100 µM in each case.

`C=C1C[C@H](O)[C@@H]2[C@H](OC(=O)[C@H]2COC)[C@H]2[C@H](C)C(=O)C[C@@H]12` [Compound 10]: the IC50 in assay [1] (Table S1) and in assay [2] (Table S1) was greater than 100 µM in each case.

For `C=C1C[C@H](OC(C)=O)[C@@H]2[C@H](OC(=O)[C@H]2C)[C@H]2[C@H](C)[C@@H](OC(C)=O)C[C@@H]12` [Compound 4], the IC50 in assay [3] (setting [7]), in assay [1] (Table S1) and in assay [2] (Table S1) was greater than 100 µM in each case.

For the compound `C=C1C(=O)O[C@H]2[C@H]1[C@@H](O)CC(=C)[C@@H]1C[C@H](O)[C@@H](C)[C@H]21` [Compound 12], the figures for the IC50 in assay [3] (setting [8]), in assay [1] (Table 2) and in assay [2] (Table 2) were greater than 100 µM, 63.8 ± 1.32 µM and 53.6 ± 1.6 µM, respectively.

For `C=C1C(=O)O[C@H]2[C@H]1[C@@H](O)CC(=C)[C@@H]1CC(=O)[C@@H](C)[C@H]21` [Compound 1, Grossheimin], the IC50 in assay [4] was 30.9 µM; in assay [5], 16.9 µM; in assay [3] (Fibroblast, read-out: IC50 CDD-19Lu) it was greater than 100 µM; in assay [1] (Table 2) it was 23.3 ± 2.05 µM; in assay [2] (Table 2), 27.9 ± 2 µM.

Turning to `C=C1C[C@H](O)[C@@H]2[C@H](OC(=O)[C@H]2CSCc2ccccc2)[C@H]2[C@H](C)[C@H](O)C[C@@H]12` [Compound 9], the IC50 in assay [3] (setting [7]), in assay [1] (Table S1) and in assay [2] (Table S1) was greater than 100 µM throughout.

Take `C=C1C[C@H](O)[C@@H]2[C@H](OC(=O)[C@H]2CNC=O)[C@H]2[C@H](C)[C@@H](O)C[C@@H]12` [Compound 14]: the IC50 in assay [1] (Table S1) and in assay [2] (Table S1) was greater than 100 µM throughout.

In the case of `C=C1C[C@H](O)[C@@H]2[C@H](OC(=O)[C@H]2CNCc2ccccc2)[C@H]2[C@H](C)C(=O)C[C@@H]12` [Compound 5], the IC50 in assay [3] (setting [7]), in assay [1] (Table S1) and in assay [2] (Table S1) was greater than 100 µM each time.

Turning to `C=C1C[C@H](O)[C@@H]2[C@H](OC(=O)[C@H]2CNCc2ccccc2)[C@H]2[C@H](C)[C@@H](O)C[C@@H]12` [Compound 6], the IC50 in assay [3] (setting [7]), in assay [1] (Table S1) and in assay [2] (Table S1) was greater than 100 µM each time.

On to `C=C1C[C@H](O)[C@@H]2[C@H](OC(=O)[C@H]2Cn2cnc3ccccc32)[C@H]2[C@H](C)[C@@H](O)C[C@@H]12` [Compound 16a], for which the IC50 in assay [3] (setting [7]), in assay [1] (Table S1) and in assay [2] (Table S1) was greater than 100 µM throughout.

In the case of `C=C1C[C@H](O)[C@@H]2[C@H](OC(=O)[C@H]2CSCc2ccccc2)[C@H]2[C@H](C)C(=O)C[C@@H]12` [Compound 8], the IC50 in assay [3] (setting [7]), in assay [1] (Table S1) and in assay [2] (Table S1) was greater than 100 µM throughout.

Turning to `C=C1C[C@H](O)[C@@H]2[C@H](OC(=O)[C@H]2C)[C@H]2[C@H](C)[C@H](O)C[C@@H]12` [Compound 3], the IC50 in assay [3] (setting [7]), in assay [1] (Table S1) and in assay [2] (Table S1) was greater than 100 µM throughout.

Take `C=C1C[C@H](O)[C@@H]2[C@H](OC(=O)[C@H]2CNC=O)[C@H]2[C@H](C)C(=O)C[C@@H]12` [Compound 7]: the IC50 in assay [1] (Table S1) and in assay [2] (Table S1) was greater than 100 µM in each case.

Take `C=C1C(=O)O[C@H]2[C@H]1[C@@H](OC(C)=O)CC(=C)[C@@H]1CC(=O)[C@@H](C)[C@H]21` [Compound 2]: the IC50 in assay [3] (setting [8]) was greater than 100 µM; in assay [6] it was roughly 9 µM; in assay [1] (Table 2), 8.21 ± 0.51 µM; in assay [2] (Table 2) it was 9.44 ± 0.41 µM.

For the compound `COc1cccc2c1C(=O)c1c(O)c3c(c(O)c1C2=O)C[C@@](O)(C(=O)CO)C[C@@H]3O[C@H]1C[C@H](N)[C@H](O)[C@H](C)O1` [DOX, Doxorubicin, reference compound], the IC50 in assay [3] (setting [8]) was greater than 8.62 µM; in assay [1] (Table 2) it was 3.21 ± 0.03 µM; in assay [2] (Table 2) it was 4.36 ± 0.08 µM.

Regarding `C=C1C(=O)O[C@H]2[C@H]1[C@@H](OC(C)=O)CC(=C)[C@@H]1C[C@H](OC(C)=O)[C@@H](C)[C@H]21` [Compound 13], the IC50 in assay [3] (setting [8]) is 29.1 ± 0.46 µM; in assay [6] it was roughly 8 µM; in assay [1] (Table 2) it was 8.21 ± 0.51 µM; in assay [2] (Table 2), 6.98 ± 0.29 µM.

The record behind these values is article PMC12024577, “Synthesis and Antiproliferative Effects of Grossheimin-Derived Aminoanalogues” (Biomolecules, 2025).
